Assay results published in patent publication US11629359B2, “Plasma membrane intrinsic aquaporin for absorbing and transporting neonicotinoid insecticides, and coding gene and use therefor” (JIANGSU ACADEMY OF ARGRICULTURAL SCIENCES, priority 2020, dated 2023).

Assays:
Chinese cabbage plants = details: 2 mg/L in Hoagland nutrient solution, mercuric chloride and glycerol of different concentrations, 48 h
[1] = test system: Saccharomyces cerevisiae INVSc1 (pYES2); experiment: Thiamethoxam content of control yeast strain; assay type: cell-based; details: 30° C., 6 h
Source text: (§1) The BraPIP2;1 gene cloned in Example 1 was constructed into the Saccharomyces cerevisiae overexpression vector pYES2 (purchased from Clotech) referring to (He Lin, Jiang Lili, Wang Yucheng, Analysis of the stress tolerance of Tamarix thioredoxin peroxidase (ThPrx1) gene transformed into yeast, Journal of Northeast Forestry University, 2011, Vol. 39. No. 4, 101-104), and the constructed recombinant plasmid was named pYES2-BraPIP2;1. The pYES2-BraPIP2;1 and an empty vector pYES2 were transformed into Saccharomyces cerevisiae INVSc1 by lithium acetate precipitation. The recombinant yeasts were named INVSc1 (pYES2-BraPIP2;1) and INVSc1 (pYES2), respectively.
(§2) Induction of recombinant strains: Single colonies of the control yeast INvsc1 (pYES2) and the recombinant yeast INvsc1 (pYES2-BraPIP2;1) were picked, inoculated in an SC-U liquid medium (with glucose of a final concentration of 2%) respectively, and incubated at 30° C. for 24 h on a shaker. The OD600 value is measured, and the amount of bacterial solution required is calculated such that the OD600 of bacteria in 10 ml of induction medium (SC-U+2% galactose) is 0.4. Induce expression was carried out at 30° C. for 24 h. The OD600 value was measured again, and the amount of bacterial solution required was calculated. […]

[2] = test system: BraPIP2;1 overexpression Arabidopsis thaliana; experiment: Thiamethoxam content of BraPIP2;1 transgenic Arabidopsis thaliana plants; assay type: in vivo; details: soil containing 10 mg/L thiamethoxam, 20 days
Source text: (§3) The BraPIP2;1 gene cloned in Example 1 was constructed into the plant binary overexpression vector pCAMBIA2301 (purchased from Clotech). By the Agrobacterium tumefaciens-mediated method (Valvekens, D., van Montagu, M., and Lijsebettens, M. V. (1988). Agrobacterium tumefaciens-mediated transformation of Arabidopsis thaliana root explants by using kanamycin selection. Proc. Natl. Acad. Sci. USA 85, 5536-5540.), the inflorescence of wild-type Arabidopsis thaliana Col-0 (purchased from ATCC, USA) was infected with the constructed overexpression vector. Through screening (resistance pure line seedlings were screened on a 1/2MS plate containing 50 μg/mL kanamycin), BraPIP2;1 overexpression Arabidopsis thaliana pure line materials BraPIP2;1#3 and BraPIP2;1#5 were identified and obtained.
In addition, germinated seedlings of the same size were transplanted into soil containing 10 mg/L thiamethoxam, and after 20 days of culture, the root and aboveground samples of the transgenic Arabidopsis thaliana and the control were harvested respectively, washed with deionized water, and weighed.

[3] = test system: Saccharomyces cerevisiae INVSc1 (pYES2-BraPIP2;1); experiment: Thiamethoxam content of recombinant yeast strain; assay type: cell-based; details: 30° C., 6 h
Source text: as §1, §2

[4] = test system: Saccharomyces cerevisiae INVSc1 (pYES2-BraPIP2;1); experiment: Growth of recombinant yeast strains under thiamethoxam stress; assay type: cell-based; details: thiamethoxam 10-1600 mg/L, stress at 30° C. for 72 h
Source text: as §1, §2

BraPIP2;1 = experiment: Response of BraPIP2;1 gene expression to thiamethoxam (quantitative RT-PCR); assay type: in vivo, Chinese cabbage; details: 10 mg/L thiamethoxam, 6 hours and 24 hours, p<0.001
Experimental: Seedlings of Chinese cabbage with the same growth condition were put in a Hoagland's nutrient solution containing 10 mg/L thiamethoxam (the Hoagland's nutrient solution was purchased from Beijing Coolaber Technology Co., Ltd.), and treated in the Hoagland's nutrient solution for 6 and 24 hours (treatment group).
At the same time, a Hoagland's nutrient solution without thiamethoxam was used as the control group.
Treated root and aboveground tissue RNA of two groups was extracted respectively, the 1st strand cDNA was obtained by reverse transcription as a template, specific expression primers were designed based on the cDNA sequence of BraPIP2;1, the Chinese cabbage Tublin was used as an internal reference, and the expression of the gene transcription level was detected by quantitative RT-PCR.
The quantification instrument is 7500 Real Time PCR System (Applied Biosystem), and a qPCRT system was configured according to the instructions of a kit 2×TSINGKE Master qPCR Mix (Tsingke Biotechnology Co., Ltd.). The PCR program is: pre-denaturation at 95° C. for 10 min, at 95° C. for 15s, and at 60° C. for 20 s, for 40 cycles.

[5] = test system: BraPIP2;1 overexpression Arabidopsis thaliana; experiment: Main root length of BraPIP2;1 transgenic Arabidopsis thaliana under thiamethoxam; assay type: in vivo; details: 1/2MS media with 10 and 50 mg/L thiamethoxam, 20 days
Source text: as §3
The pure line seeds of the BraPIP2;1#3 and BraPIP2;1#5 obtained in the previous transgenic experiment and a wild-type Col-0 material (WT) were germinated on a 1/2MS medium respectively, and then transferred to 1/2MS media (Qingdao Hopebio Co., Ltd., Item No. HB8469-12, PH=5.6) containing 10 and 50 mg/L thiamethoxam respectively. After 20 days, the growth of the seedlings was observed and the main root length was measured.

`CN1CCCC1c1cccnc1` (stereo not drawn) [nicotine] was tested, and the “content of the compound in the plants after water channel inhibitors were added” value (Chinese cabbage plants) was “did not change significantly”.
`CN1COCN(Cc2cnc(Cl)s2)/C1=N\[N+](=O)[O-]` [thiamethoxam] was tested, and the “thiamethoxam content of the control strain” value ([1]; 10 mg/L thiamethoxam) was 0.0038 ng/OD, the “thiamethoxam content of the control strain” value ([1]; 100 mg/L thiamethoxam) was 0.011 ng/OD and the “thiamethoxam content of the roots and aboveground parts of the transgenic plant versus wild plant” value [2] was “higher than that of the wild plant”. For the same compound, the “thiamethoxam content of the recombinant strain” value ([3]; 10 mg/L thiamethoxam) was 0.0071 ng/OD, the “thiamethoxam content of the recombinant strain” value ([3]; 100 mg/L thiamethoxam) was 0.028 ng/OD and the “growth of transgenic strain (pYES2-BraPIP2;1) versus wild strain (pYES2) with thiamethoxam” value [4] was “grows significantly weaker than the wild strain”. The “expression abundance of BraPIP2;1 in the roots and aboveground parts compared with the control” value (BraPIP2;1) was “significantly increased” and the “main root length of the transgenic strain versus wild type” value [5] was “shorter than that of the wild type”.
